According to EP0183439B1, “Polycyclic compounds, their preparation and use and formulations containing them” (THE WELLCOME FOUNDATION LIMITED, priority 1984, dated 1986):
Counter-ions that a name gives are not always drawn.

Legend:
[1] = LD20 in the P388/0 test (toxicity in mice); format: in vivo
Method: (§1) CD2-F₁ mice, of the same sex, weighing within a 3 g range surrounding 20 g, are used for this test. Control and test animals are injected intraperitoneally with a suspension of 10⁶ viable P388/0 tumor cells on day 0. In each test several dose levels which bracket the LD₂₀ for the compound are evaluated; each dose level group contains 6 animals. The test compounds are prepared either in physiologic saline containing 0.05% Tween 80 or distilled water containing 5% dextrose and are administered intraperitoneally on days, 1, 5, and 9 relative to tumor implant.

P388/0 tumor cells = test: Lymphocytic Leukemia P388/0 Test; format: in vivo, CD2-F₁ mice; conditions: ratio of median survival time treated/control at optimal dose; i.p. days 1, 5, 9; 10⁶ P388/0 cells i.p. on day 0
Description: Methods for evaluating the antitumor activity of these compounds are essentially those used in the Tumor Panel by the Development Therapeutics Program, Division of Cancer Treatment, National Cancer Institute, A. Goldin, et al., Methods in Cancer Research, Vol. XVI, p. 165, Academic Press (1979). Some modifications, in dose level and schedule have been made to increase the testing efficiency.
as §1
Doses are on a mg/kg basis according to individual animals' body weights. The day of death for each animal is recorded, the median identified for each group and the ratios of median survival time for treated (T)/control (C) groups are calculated. The criterion for activity is T/C x 100 120%.

[2] = intraperitoneally on days 1, 5 and 9

| Structure (SMILES) | LD₂₀ ([1]; mouse, in vivo, ip) [mg/kg] | T/C x 100% (Exluding 30 Day Survivors) (P388/0 tumor cells) | LD₂₀ [1, 2] [mg/kg] |
| --- | --- | --- | --- |
| CC(CO)(CO)NCc1cccc2sc3ccccc3c12 [Example 1, 2-[(1-Dibenzothiophenylmethyl)amino]-2-methyl-1,3-propanediol hydrochloride] | 240 | +140% |  |
| CC(CO)(CO)NCc1ccc2sc3ccccc3c2c1.Cl [Example 2, 2-[(2-Dibenzothiophenylmethyl)amino]-2-methyl-1,3-propanediol hydrochloride] |  | +130% | 200 |
| CC(CO)(CO)NCc1cccc2c1sc1ccccc12.Cl [Example 3, 2-[(4-Dibenzothiophenylmethyl)amino]-2-methyl-1,3-propanediol hydrochloride] |  | +155% | 200 |
| CC(CO)(CO)NCc1cccc2oc3ccccc3c12 [Example 4B, 2-[(1-Dibenzofuranylmethyl)amino]-2-methyl-1,3-propanediol hydrochloride] |  | +140% | 200 |
| CC(CO)(CO)NCc1ccc2oc3ccccc3c2c1.Cl [Example 5, 2-[(2-Dibenzofuranylmethyl)amino]-2-methyl-1,3-propanediol hydrochloride] |  | +120% | 225 |
| CC(CO)(CO)NCc1c2ccccc2cc2sccc12 [Example 6B, 2-[(Naphtho[2,3-b]thiophen-4-ylmethyl)amino]-2-methyl-1,3-propanediol hydrochloride 1/20 hydrate] | 150 | +125% |  |
| CC(CO)(CO)NCc1cc2ccsc2c2ccccc12 [Example 10C, 2-Methyl-2-[(naphtho[1,2-b]thiophene-5-ylmethyl)amino]-1,3-propanediol] |  | +125% | 115 |
| CC(CO)(CO)NCc1c2ccccc2nc2ccccc12 [Example 13, 2-[(9-Acridinylmethyl)amino]-2-methyl-1,3-propanediol dihydochoride] | 540 | +130% |  |
